Laboratory results published in patent US20070128265A1, “Regulation of cell proliferation and differentiation using topically applied peptides” (priority 2000, published 2007).

Columns and labels:
[1] = tested on: psoriatic lesions; assay: Double blind placebo controlled trial in chronic psoriasis, clinical improvement of lesions; assay type: in vivo, patients; conditions: 20 μg/0.1 ml in Novasome topically, two months
Excerpt: Nine patients with chronic psoriasis were enrolled in a double blind placebo controlled trial. […] The percentage of clinical improvement of scaling, erythema, and induration for the lesion treated with placebo was 17.2, 15, and 30%, respectively. For the lesion treated with PTH (1-34), there was a marked improvement in scaling of 30.9%, erythema 34%, and induration 52%, respectively.

[2] = tested on: mammalian cells; conditions: U.S. Pat. Nos. 5,527,772, 5,840,690 and 6,066,618; agonists or antagonists of PTH and PTHrP; cited from earlier work
[3] = tested on: hair follicle cells; assay: BRDU staining of hair follicle cells in depilated C57 BL/6 mice; assay type: in vivo; conditions: 10 μg in 30 μl Novasome topically daily for seven days
Experimental: (§1) C57 BL/6 were purchased from Jackson Labs and were in their telogen state of hair development. The animals were depilated as previously described (1). Groups of six animals received daily a topical application of either 10 μg of PTH (1-34) in 30 μl of Novasome or their depilatated backs, 10 μg of PTH (7-34)/30 μl of Novasome, or 30 μl of Novasome. The animals were dosed daily for seven days. Macroscopic evaluation and tritiated thymidine and bromouridine analysis was made on day seven as previously described (1, 2, 3, 4).

[4] = tested on: epidermis of psoriatic lesions; assay: Skin biopsies of psoriatic lesions: hemotoxilin and eosin staining, immunohistochemistry for PCNA and transglutaminase; assay type: in vivo, patients; conditions: treated lesions compared to placebo treated lesions, two months
[5] = tested on: psoriatic lesion; assay: One patient with chronic psoriasis: topical PTH (1-34) followed by calcipotriene cream; assay type: in vivo
Excerpt: One patient with chronic psoriasis received topically PTH (1-34) for two months. […] The patient returned two weeks later and, on the lesion treated with PTH (1-34) and the placebo lesion, received topically calcipotriene cream. […] Therefore, the combination therapy of PTH (1-34) followed by calcipotriene or other activated vitamin D compounds can be an effective therapeutic approach for treating psoriasis.

[6] = tested on: epidermis; assay: Tritiated thymidine incorporation into epidermal DNA in SKH-1 hairless mice; assay type: in vivo
Experimental: SKH-1 hairless mice received topically daily for 60 days either 10 μg of PTH (1-34) formulated in Novasome A, PTH (7-34) formulated in Novasome A, or Novasome A without any PTH analog to serve as the control group. The animals received ^3H-tritiated thymidine for the evaluation of epidermal proliferation as previously described.

[7] = tested on: hair follicles; assay: Macroscopic evaluation of hair cycle progression in depilated C57 BL/6 mice; assay type: in vivo; conditions: for hair growth progression (progression of hair follicles into anagen), macroscopic evaluation: 10 μg in 30 μl Novasome topically daily for seven days
Experimental: as §1

PTH (1-34): parathyroid hormone fragment (1-34), agonist peptide; tested topically formulated in Novasome A liposomes
percentage of clinical improvement of erythema [1]: 34% | percentage of clinical improvement of induration [1]: 52% | percentage of clinical improvement of scaling [1]: 30.9% | effect on proliferation and differentiation of mammalian cells [2]: inhibit proliferation and enhance differentiation of mammalian cells | BRDU staining of the hair follicles [3]: demonstrated a decrease | PCNA staining in skin biopsies [4]: restoration of the PCNA staining in the basal layer | proliferation of the epidermis in skin biopsies [4]: marked decrease in the proliferation of the epidermis | transglutaminase staining in skin biopsies [4]: restoration of transglutaminase staining in the upper granular layer | response of psoriatic lesion ([5]; topical PTH (1-34) for two months): minimal response | decrease in DNA synthesis (proliferation) compared to the control group ([6]; 10 μg topically daily for 60 days in Novasome A, 3H-thymidine): 25% | hair growth progression (progression of hair follicles into anagen), macroscopic evaluation [7]: decrease in hair growth progression

PTHrP (1-34): parathyroid related peptide fragment (1-34), agonist of PTH and PTHrP
effect on proliferation and differentiation of mammalian cells [2]: inhibit proliferation and enhance differentiation of mammalian cells

C=C1/C(=C\C=C2/CCC[C@]3(C)[C@@H]([C@H](C)/C=C/[C@@H](O)C4CC4)CC[C@@H]23)C[C@@H](O)C[C@@H]1O [calcipotriene, reference compound]
response of psoriatic lesion after two months of topical calcipotriene cream ([5]; lesion pretreated two months with PTH (1-34) or with Novasome placebo): no significant improvement

PTH (3-34): parathyroid hormone fragment (3-34), agonist of PTH and PTHrP (SEIQLMHNLGKHLNSMERVEWLRKKLQDVHNF; Parathyroid hormone; UniProt P01270 34-65, looked up, fragment)
effect on proliferation and differentiation of mammalian cells [2]: inhibit proliferation and enhance differentiation of mammalian cells

PTHrP (7-34): parathyroid related peptide fragment (7-34), antagonist of PTH and PTHrP
effect on proliferation and differentiation of mammalian cells [2]: enhance the proliferation of mammalian cells

PTH (7-34): parathyroid hormone fragment (7-34), antagonist peptide; tested topically formulated in Novasome A liposomes (LMHNLGKHLNSMERVEWLRKKLQDVHNF; Parathyroid hormone Novasome A liposome formulation; UniProt P01270 38-65, looked up, fragment)
effect on proliferation and differentiation of mammalian cells [2]: enhance the proliferation of mammalian cells | BRDU staining of the hair follicles [3]: increase in BRDU staining of the hair follicle | enhancement in DNA synthesis (proliferation) compared to the control group ([6]; 10 μg topically daily for 60 days in Novasome, 3H-thymidine in the epidermis): more than two fold enhancement | hair growth progression (progression of hair follicles into anagen), macroscopic evaluation [7]: increase in the progression of the hair follicles into their proliferative anagen state | increase in the anagen area ([7]; 10 μg topically daily for seven days, formulated in Novasome A): 155%
